According to patent US20250388604A1, “Compounds and Their Use as PDE4 Activators” (Mironid Limited, priority 2022, published 2025):

Test system: m-IMCD3 cells
Test: Inhibition of PGE2-stimulated in vitro cyst formation in m-IMCD3 cells
Type: cell-based, mouse
Settings: Mus musculus, mIMCD3, 144 h, 3 μM; mean cyst area, 100% for (DMSO + PGE2) and 0% for DMSO control; 6 days of culture; read-out: % Cyst area after incubation with 3 μM test compound
How it was run: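 m-IMCD3 cells embedded in collagen I/Matrigel 3D culture; 18–24 h after plating, compound (0.1% DMSO final) plus PGE2 (100 nM final) added, replenished after 2 or 3 days. After 6 days, z-stack imaging gave mean cyst area, normalized to DMSO+PGE2 (100%) and DMSO (0%).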

Row | Structure (SMILES) | activity at 3 µM [%]
1 | CC(C)(C#N)CC(=O)N1CCc2nc(N3C4CCC3CNC4)sc2C1 [Example 178, 4-(2-(3,8-diazabicyclo[3.2.1]octan-8-yl)-6,7-dihydrothiazolo[5,4-c]pyridin-5(4H)-yl)-2,2-dimethyl-4-oxobutanenitrile] | 24
2 | O=C(C1Cc2ccccc2O1)N1CCc2nc(N3C4CCC3CNC4)sc2C1 (stereo not shown) [Example 179, (2-(3,8-diazabicyclo[3.2.1]octan-8-yl)-6,7-dihydrothiazolo[5,4-c]pyridin-5(4H)-yl)(2,3-dihydrobenzofuran-2-yl)methanone] | 2
3 | O=C(C1COc2ccccc2O1)N1CCc2nc(N3C4CCC3CNC4)sc2C1 (stereo not shown) [Example 180, (2-(3,8-diazabicyclo[3.2.1]octan-8-yl)-6,7-dihydrothiazolo[5,4-c]pyridin-5(4H)-yl)(2,3-dihydrobenzo[b][1,4]dioxin-2-yl)methanone] | 2
4 | O=C(C1CCc2ccccc2O1)N1CCc2nc(N3C4CCC3CNC4)sc2C1 (stereo not shown) [Example 181, (2-(3,8-diazabicyclo[3.2.1]octan-8-yl)-6,7-dihydrothiazolo[5,4-c]pyridin-5(4H)-yl)(chroman-2-yl)methanone] | 5
5 | O=C(C1COc2ccccc2C1)N1CCc2nc(N3C4CCC3CNC4)sc2C1 (stereo not shown) [Example 182, (2-(3,8-diazabicyclo[3.2.1]octan-8-yl)-6,7-dihydrothiazolo[5,4-c]pyridin-5(4H)-yl)(chroman-3-yl)methanone] | 1
6 | O=C(C1Cc2ccccc2CO1)N1CCc2nc(N3C4CCC3CNC4)sc2C1 (stereo not shown) [Example 183, (2-(3,8-diazabicyclo[3.2.1]octan-8-yl)-6,7-dihydrothiazolo[5,4-c]pyridin-5(4H)-yl)(isochroman-3-yl)methanone] | 0
7 | O=C(c1cc2ccccc2o1)N1CCc2nc(N3C4CCC3CNC4)sc2C1 [Example 185, (2-(3,8-diazabicyclo[3.2.1]octan-8-yl)-6,7-dihydrothiazolo[5,4-c]pyridin-5(4H)-yl)(benzofuran-2-yl)methanone] | -2
8 | O=C(c1nccc2ccccc12)N1CCc2nc(N3C4CCC3CNC4)sc2C1 [Example 186, (2-(3,8-diazabicyclo[3.2.1]octan-8-yl)-6,7-dihydrothiazolo[5,4-c]pyridin-5(4H)-yl)(isoquinolin-1-yl)methanone] | 0
9 | O=C(c1coc2ccccc12)N1CCc2nc(N3C4CCC3CNC4)sc2C1 [Example 187, (2-(3,8-diazabicyclo[3.2.1]octan-8-yl)-6,7-dihydrothiazolo[5,4-c]pyridin-5(4H)-yl)(benzofuran-3-yl)methanone] | -8
10 | O=C(c1cc2ccccc2[nH]1)N1CCc2nc(N3C4CCC3CNC4)sc2C1 [Example 188, (2-(3,8-diazabicyclo[3.2.1]octan-8-yl)-6,7-dihydrothiazolo[5,4-c]pyridin-5(4H)-yl)(1H-indol-2-yl)methanone] | 3
11 | Cn1c(C(=O)N2CCc3nc(N4C5CCC4CNC5)sc3C2)cc2ccccc21 [Example 189, (2-(3,8-diazabicyclo[3.2.1]octan-8-yl)-6,7-dihydrothiazolo[5,4-c]pyridin-5(4H)-yl)(1-methyl-1H-indol-2-yl)methanone] | -1
12 | O=C(c1nc2ccccc2o1)N1CCc2nc(N3C4CCC3CNC4)sc2C1 [Example 190, (2-(3,8-diazabicyclo[3.2.1]octan-8-yl)-6,7-dihydrothiazolo[5,4-c]pyridin-5(4H)-yl)(benzo[d]oxazol-2-yl)methanone] | 1
13 | O=C(c1cc2ccccc2cn1)N1CCc2nc(N3C4CCC3CNC4)sc2C1 [Example 192, (2-(3,8-diazabicyclo[3.2.1]octan-8-yl)-6,7-dihydrothiazolo[5,4-c]pyridin-5(4H)-yl)(isoquinolin-3-yl)methanone] | 1
14 | O=C(c1ccccc1)N1CCc2nc(N3C4CCC3CNC4)sc2C1 [Example 193, (2-(3,8-diazabicyclo[3.2.1]octan-8-yl)-6,7-dihydrothiazolo[5,4-c]pyridin-5(4H)-yl)(phenyl)methanone] | -1
15 | Cc1ccccc1C(=O)N1CCc2nc(N3C4CCC3CNC4)sc2C1 [Example 194, (2-(3,8-diazabicyclo[3.2.1]octan-8-yl)-6,7-dihydrothiazolo[5,4-c]pyridin-5(4H)-yl)(o-tolyl)methanone] | 1
16 | Cc1cccc(C(=O)N2CCc3nc(N4C5CCC4CNC5)sc3C2)c1 [Example 195, (2-(3,8-diazabicyclo[3.2.1]octan-8-yl)-6,7-dihydrothiazolo[5,4-c]pyridin-5(4H)-yl)(m-tolyl)methanone] | 1
17 | Cc1ccc(C(=O)N2CCc3nc(N4C5CCC4CNC5)sc3C2)cc1 [Example 196, (2-(3,8-diazabicyclo[3.2.1]octan-8-yl)-6,7-dihydrothiazolo[5,4-c]pyridin-5(4H)-yl)(p-tolyl)methanone] | -1

Row | Structure (SMILES) | activity at 3 µM [%]
18 | COc1ccccc1C(=O)N1CCc2nc(N3C4CCC3CNC4)sc2C1 [Example 197, (2-(3,8-diazabicyclo[3.2.1]octan-8-yl)-6,7-dihydrothiazolo[5,4-c]pyridin-5(4H)-yl)(2-methoxyphenyl)methanone] | 4
19 | O=C(c1ccc(F)cc1)N1CCc2nc(N3C4CCC3CNC4)sc2C1 [Example 198, (2-(3,8-diazabicyclo[3.2.1]octan-8-yl)-6,7-dihydrothiazolo[5,4-c]pyridin-5(4H)-yl)(4-fluorophenyl)methanone] | -5
20 | O=C(c1cccc(C(F)F)c1)N1CCc2nc(N3C4CCC3CNC4)sc2C1 [Example 199, (2-(3,8-diazabicyclo[3.2.1]octan-8-yl)-6,7-dihydrothiazolo[5,4-c]pyridin-5(4H)-yl)(3-(difluoromethyl)phenyl)methanone] | 3
21 | O=C(c1ccc(F)nc1)N1CCc2nc(N3C4CCC3CNC4)sc2C1 [Example 200, (2-(3,8-diazabicyclo[3.2.1]octan-8-yl)-6,7-dihydrothiazolo[5,4-c]pyridin-5(4H)-yl)(6-fluoropyridin-3-yl)methanone] | 4
22 | O=C(c1ccccn1)N1CCc2nc(N3C4CCC3CNC4)sc2C1 [Example 201, (2-(3,8-diazabicyclo[3.2.1]octan-8-yl)-6,7-dihydrothiazolo[5,4-c]pyridin-5(4H)-yl)(pyridin-2-yl)methanone] | 17
23 | O=C(c1ccc(F)cn1)N1CCc2nc(N3C4CCC3CNC4)sc2C1 [Example 202, (2-(3,8-diazabicyclo[3.2.1]octan-8-yl)-6,7-dihydrothiazolo[5,4-c]pyridin-5(4H)-yl)(5-fluoropyridin-2-yl)methanone] | -4
24 | O=C(c1ccccc1OC(F)F)N1CCc2nc(N3C4CCC3CNC4)sc2C1 [Example 203, (2-(3,8-diazabicyclo[3.2.1]octan-8-yl)-6,7-dihydrothiazolo[5,4-c]pyridin-5(4H)-yl)(2-(difluoromethoxy)phenyl)methanone] | -1
25 | O=C(c1ccc(OC(F)F)cc1)N1CCc2nc(N3C4CCC3CNC4)sc2C1 [Example 204, (2-(3,8-diazabicyclo[3.2.1]octan-8-yl)-6,7-dihydrothiazolo[5,4-c]pyridin-5(4H)-yl)(4-(difluoromethoxy)phenyl)methanone] | 4
26 | O=C(c1cccc(OC(F)(F)F)c1)N1CCc2nc(N3C4CCC3CNC4)sc2C1 [Example 205, (2-(3,8-diazabicyclo[3.2.1]octan-8-yl)-6,7-dihydrothiazolo[5,4-c]pyridin-5(4H)-yl)(3-(trifluoromethoxy)phenyl)methanone] | 0
27 | O=C(c1cccc(OC(F)F)c1)N1CCc2nc(N3C4CCC3CNC4)sc2C1 [Example 206, (2-(3,8-diazabicyclo[3.2.1]octan-8-yl)-6,7-dihydrothiazolo[5,4-c]pyridin-5(4H)-yl)(3-(difluoromethoxy)phenyl)methanone] | 6
28 | O=C(c1ccccc1OC(F)(F)F)N1CCc2nc(N3C4CCC3CNC4)sc2C1 [Example 207, (2-(3,8-diazabicyclo[3.2.1]octan-8-yl)-6,7-dihydrothiazolo[5,4-c]pyridin-5(4H)-yl)(2-(trifluoromethoxy)phenyl)methanone] | 0
29 | O=C(c1ccc(OC(F)(F)F)cc1)N1CCc2nc(N3C4CCC3CNC4)sc2C1 [Example 208, (2-(3,8-diazabicyclo[3.2.1]octan-8-yl)-6,7-dihydrothiazolo[5,4-c]pyridin-5(4H)-yl)(4-(trifluoromethoxy)phenyl)methanone] | 8
30 | O=C(c1ccccc1F)N1CCc2nc(N3C4CCC3CNC4)sc2C1 [Example 209, (2-(3,8-diazabicyclo[3.2.1]octan-8-yl)-6,7-dihydrothiazolo[5,4-c]pyridin-5(4H)-yl)(2-fluorophenyl)methanone] | -5
31 | O=C(c1ccccc1Cl)N1CCc2nc(N3C4CCC3CNC4)sc2C1 [Example 210, (2-(3,8-diazabicyclo[3.2.1]octan-8-yl)-6,7-dihydrothiazolo[5,4-c]pyridin-5(4H)-yl)(2-chlorophenyl)methanone] | 11
32 | CC(C)Oc1ccccc1C(=O)N1CCc2nc(N3C4CCC3CNC4)sc2C1 [Example 211, (2-(3,8-diazabicyclo[3.2.1]octan-8-yl)-6,7-dihydrothiazolo[5,4-c]pyridin-5(4H)-yl)(2-isopropoxyphenyl)methanone] | 40
33 | O=C(c1ccc(F)cc1F)N1CCc2nc(N3C4CCC3CNC4)sc2C1 [Example 212, (2-(3,8-diazabicyclo[3.2.1]octan-8-yl)-6,7-dihydrothiazolo[5,4-c]pyridin-5(4H)-yl)(2,4-difluorophenyl)methanone] | 0
34 | N#Cc1ccccc1C(=O)N1CCc2nc(N3C4CCC3CNC4)sc2C1 [Example 213, 2-(2-(3,8-diazabicyclo[3.2.1]octan-8-yl)-4,5,6,7-tetrahydrothiazolo[5,4-c]pyridine-5-carbonyl)benzonitrile] | 17
